Experimental data: US20040034023A1, “Use of polycyclic aromatic compounds for making medicines capable of inhibiting telomerase” (priority 2000, published 2004)
Several values for one entry are separate records, joined by “and”; a condition that tells them apart may be missing. Identical values can stand only once.

Assays:
[1] = tested on: triplex; conditions: 15 μM colorant; cited from earlier work
[2] = tested on: human telomerase; assay: Telomerase inhibition, TRAP test with HL60 cell extract; format: biochemical; conditions: for IC50: TRAP test, HL60 cell lysate as source of telomerase; for in vitro inhibition of the telomerase (FIG. 3A, gel of elongation products): tested at 0.1, 1 and 10 μM
[3] = tested on: human HeLa tumoral line; assay: Antiproliferative effect / cytotoxicity on HeLa cells (Cell Titer 96 Aqueous One Solution); format: cell-based
Protocol: Cells of cancer lines are incubated for 3 days in the presence of different concentrations of compound 1.
These cells are cultured in a MEM (Life Technologies) medium containing 10% of decomplemented foetal calf serum, glutamine, nonessential amino acids (1%) and antibiotics (penicillin and streptomycin). The ligand is diluted in the culture medium after adhesion of the cells on 96-well plates (2500 cells per well). The number of cells is estimated by the “Cell Titer 96 Aqueous One Solution Cell Proliferation Assay” kit from Promega. Each measurement was carried out in quadruplicate. The cells are left in the presence of the compound for 1 to 4 days, then counted.

[4] = tested on: G-quadruplex (fluo-GGGTTAGGGTTAGGGTTAGGG-tamra oligonucleotide, SEQ ID No. 1); assay: G-quadruplex stabilization, Tm in fluorescence (FRET method); format: binding; conditions: 1 μM colorant; 0.1 M LiCl 10 mM cacodylate buffer pH 7.6; 0.2 μM oligonucleotide
Protocol: All the experiments were carried out in a 10 mM sodium cacodylate buffer of pH 7.6 containing 0.1 M of lithium chloride (or sodium chloride). The absence of fluorescent contamination in the buffer was verified beforehand. The fluorescent oligonucleotide is added at the final concentration of 0.2 μM.
The identification of G-quartets ligands was carried out by fluorescence according to the FRET (Fluorescence Resonance Energy Transfer) method which corresponds to a dipole-dipole resonance interaction between two molecules close to each other, one of which, the donor, transfers its excitation energy to the other molecule, or acceptor. The formation of an intramolecular G-quartet structure must bring the 2 chromophores close enough to be able to observe a transfer of energy.
All the fluorescence measurements were carried out on a Spex Fluorolog DM1B apparatus, using an excitation line width of 1.8 nm and an emission line width of 4.5 nm. The specimens are placed in a micro quartz dish measuring 0.2×1 cm. The temperature of the specimen is controlled by an external water bath. The single oligonucleotide was analysed at 20, 30, 40, 50, 60, 70 and 80° C. The emission spectra are recorded using an excitation wavelength of 470 nm. The excitation spectra are recorded using either 515 nm, or 588 nm as emission wavelength. The spectra are adjusted to take account of the response of the instrument by reference curves. A substantial extinction (80-90%) of the fluorescence of the fluorescein at ambient temperature is observed, in keeping with an intramolecular folding of the oligonucleotide at 20° C. in the form of a G-quadruplex, which induces a juxtaposition of its 5′ and 3′ ends, respectively bound to the fluorescein and to the tetramethylrhodamine (tamra in short). This juxtaposition involves a phenomenon already described, extinction of fluorescence of the donor by FRET, and a sensitized emission of the acceptor.
A stock solution of oligonucleotide at the strand concentration of 0.2 μM in a 0.1 M LiCl 10 mM cacodylate buffer of pH 7.6 is prepared beforehand, heated briefly to 90° C. and cooled slowly to 20° C., then distributed by aliquots of 600 μl in the fluorescence dishes. 3 μl of water (for the control) or 3 μl of the product to be tested (stock at 200 μM, final concentration 1 μm) are then added and mixed. The specimens are then left to incubate for at least 1 hour at 20° C. before each measurement.
Each experiment allows only a single specimen to be measured. This is firstly incubated at an initial temperature of 20° C., raised to 80° C. in 40 minutes, left for 5 minutes at 80° C., then cooled to 20° C. in 62 minutes. During this time, the fluorescence is measured simultaneously at two emission wavelengths (515 nm and 588 nm) using 470 nm as excitation wavelength. A measurement is carried out every 30 seconds. The temperature of the water bath is recorded in parallel, and the fluorescence profile as a function of the temperature is reconstituted from these values. The fluorescence profiles are then standardized between 20° C. and 80° C., and the temperature for which the emission intensity at 515 nm is the average of those and high and low temperature is called Tm. In these conditions, the Tm of the reference specimen without addition of product is 44° C. in a lithium chloride buffer. This temperature is increased to more than 55° C. in the sodium chloride buffer. The addition of a compound stabilizing the G-quadruplex induces an increase in the Tm. This increase is considered significant if it is greater than 3° C.
In the tests for which the results are reported below, two oligonucleotides were used of sequences SEQ ID No. 1 and SEQ ID No. 2, replaced at the 5′ end by a fluorescein (fluo in short) group and at 3′ end by a tamra group, conforming to the following sequences: […]

Molecule	IC50 [2]	Δ Tm triplex [1] [°C]	Δ Tm G4(FRET) [4]	other results
CCCNCc1ccc2nc3ccc4cc5cc(CNCCC)ccc5nc4c3cc2c1 [Compound 1]	300 nM	20		in vitro inhibition of the telomerase (FIG. 3A, gel of elongation products) [2]: disappearance of the bands with less mobility; IC50 ([3]; HeLa cells in the presence of compound for 24 hours): 500 nM; mortality ([3]; HeLa cells incubated for 96 hours, 0.5 micromolars): 100%; mortality rate ([3]; HeLa cells, concentrations of 5 micromolars or more): 100%
tetra [N-methyl pyridyl]porphyrin [reference compound]			approximately 4 °C	
CN(C)CCCNCc1ccc2nc3c(ccc4cc5cc(CNCCCN(C)C)ccc5nc43)cc2c1 [Compound 6]	900 nM	16		
CCCNCc1ccc2nc3ccc4nc5ccc(CNCCC)cc5cc4c3cc2c1 [Compound 4]	1000 nM	18		
c1nc(CCNCc2ccc3nc4ccc5cc6cc(CNCCc7c[nH]cn7)ccc6nc5c4cc3c2)c[nH]1 [Compound 9]	950 nM		+10.5 °C	
CCCNCc1cc2nc3ccccc3cc2c2cc3ccccc3nc12 [Compound 2]	1400 nM and 1450 nM	37	+5.5 °C	in vitro inhibition of the telomerase (FIG. 3A, gel of elongation products) [2]: inhibits the telomerase
c1ccc2nc3cc(CNCCN4CCCCC4)c4nc5ccccc5cc4c3cc2c1 [Compound 7]	2000 nM		+2.5 °C	
c1ccc2c(CCNCc3ccc4nc5ccc6cc7cc(CNCCc8c[nH]c9ccccc89)ccc7nc6c5cc4c3)c[nH]c2c1 [Compound 10]			+8.4 °C	
CN(C)CCCNCc1cc2nc3ccccc3cc2c2cc3ccccc3nc12 [Compound 3]	750 nM	44		

More lines, in order of falling IC50 [2], values ahead:

IC50 [2]	Molecule	Δ Tm triplex [1] [°C]	Δ Tm G4(FRET) [4]	other results
500 nM	CCCNCc1ccc2nc3c(ccc4cc5cc(CNCCC)ccc5nc43)cc2c1 [Compound 5]	7	+12.5 °C	
480 nM	c1cc2nc3ccc4cc5cc(CNCCCN6CCOCC6)ccc5nc4c3cc2cc1CNCCCN1CCOCC1 [Compound 12]		+7 °C	
460 nM	c1cn(CCCNCc2ccc3nc4ccc5cc6cc(CNCCCn7ccnc7)ccc6nc5c4cc3c2)cn1 [Compound 8]		+15 °C	
130 nM	NCCCCNCc1ccc2nc3ccc4cc5cc(CNCCCCN)ccc5nc4c3cc2c1 [Compound 11]		+18 °C	
28 nM	CN(C)CCCNCc1ccc2nc3ccc4cc5cc(CNCCCN(C)C)ccc5nc4c3cc2c1 [Compound 13]		+19.7 °C	
